Reference: ChEMBL document CHEMBL4196070, “Development of Piperazinediones as dual inhibitor for treatment of Alzheimer's disease” (Eur J Med Chem, 2018)
The source made the active and inactive calls. The calls are words filed in the database; no cut-off is given here.

Key:
[1] = Selectivity index, ratio of IC50 for electric eel AChE to IC50 for equine serum BuChE
[2] = Antioxidant activity assessed as DPPH radical scavenging activity at 10 uM after 25 mins; format: functional
[3] = Antioxidant activity assessed as DPPH radical scavenging activity at 20 uM after 25 mins; format: functional
[4] = biological target: Acetylcholinesterase (Electrophorus electricus) (UniProt O42275); assay: Ratio of Vmax to Km for substrate for inhibition of electric eel AChE at 10 nM preincubated for 30 mins followed acetylthiocholine iodide substrate addition by Lineweaver-Burk plot analysis
[5] = biological target: Acetylcholinesterase (Electrophorus electricus) (UniProt O42275); assay: Ratio of Vmax to Km for substrate for inhibition of electric eel AChE at 20 nM preincubated for 30 mins followed acetylthiocholine iodide substrate addition by Lineweaver-Burk plot analysis
[6] = biological target: Acetylcholinesterase (Electrophorus electricus) (UniProt O42275); assay: Ratio of Vmax to Km for substrate for inhibition of electric eel AChE at 40 nM preincubated for 30 mins followed acetylthiocholine iodide substrate addition by Lineweaver-Burk plot analysis
[7] = Metal chelating activity assessed as compound-Cu2+ complex formation at 600 uM after 8 hrs by UV spectroscopic analysis
Mus musculus [8] = assay: Reversal of scopolamine-induced amnesic effect in Swiss albino mouse assessed as reversal of lowered spontaneous alteration at 5 mg/kg, ip administered once daily for 7 days prior to 4 hrs of training followed by scopolamine challenge and measured after 5 mins by Y-maze test; format: functional, organism-based
Mus musculus [9] = assay: Anxiolytic activity in Swiss albino mouse assessed as increase in time spent in novel arm at 20 mg/kg, ip administered once daily for 7 days prior to 4 hrs of training followed by scopolamine challenge and measured after 5 mins by Y-maze test; format: functional, organism-based
Mus musculus [10] = assay: Reversal of scopolamine-induced neophobia in Swiss albino mouse assessed as increase in number of novel arm entries at 5 mg/kg, ip administered once daily for 7 days prior to 4 hrs of training followed by scopolamine challenge and measured after 5 mins by Y-maze test; format: functional, organism-based
Mus musculus [11] = assay: Reversal of scopolamine-induced anxiety in Swiss albino mouse assessed as increase in number of novel arm entries at 5 mg/kg, ip administered once daily for 7 days prior to 4 hrs of training followed by scopolamine challenge and measured after 5 mins by Y-maze test; format: functional, organism-based
Mus musculus [12] = assay: Reversal of scopolamine-induced neophobia in Swiss albino mouse assessed as increase in number of novel arm entries at 10 mg/kg, ip administered once daily for 7 days prior to 4 hrs of training followed by scopolamine challenge and measured after 5 mins by Y-maze test; format: functional, organism-based
Mus musculus [13] = assay: Reversal of scopolamine-induced anxiety in Swiss albino mouse assessed as increase in number of novel arm entries at 10 mg/kg, ip administered once daily for 7 days prior to 4 hrs of training followed by scopolamine challenge and measured after 5 mins by Y-maze test; format: functional, organism-based
Mus musculus [14] = assay: Reversal of scopolamine-induced memory deficit in ip dosed Swiss albino mouse assessed as increase in transfer latency time of retention trial administered once daily for 7 days followed by scopolamine challenge and subsequent training session for 5 mins by passive avoidance test; format: functional, organism-based
Mus musculus [15] = assay: Restoration of brain mitochondrial membrane potential in scopolamine-induced Swiss albino mouse amnesia model at 5 mg/kg, ip administered once daily for 7 days followed by scopolamine challenge by tetramethylrhodamine dye-based fluorescence assay; format: functional, organism-based
Mus musculus [16] = assay: Antialzheimer activity in Swiss albino mouse assessed as reversal of scopolamine-induced AChE level in brain at 5 mg/kg, ip administered once daily for 7 days followed by scopalamine challenge using acetylthiocholine iodide as substrate by Ellman's method; format: functional, organism-based
Mus musculus [17] = assay: Neuroprotective activity in scopolamine-induced amnesia Swiss albino mouse model assessed as decrease in neurodegenerative lesions in brain at 10 mg/kg, ip administered once daily for 7 days followed by scopolamine challenge by histopathological method; format: functional, organism-based
Mus musculus [18] = assay: Reversal of scopolamine-induced amnesic effect in Swiss albino mouse assessed as reversal of lowered spontaneous alteration at 10 mg/kg, ip administered once daily for 7 days prior to 4 hrs of training followed by scopolamine challenge and measured after 5 mins by Y-maze test; format: functional, organism-based
Mus musculus [19] = assay: Reversal of scopolamine-induced neophobia in Swiss albino mouse assessed as increase in number of novel arm entries at 5 to 10 mg/kg, ip administered once daily for 7 days prior to 4 hrs of training followed by scopolamine challenge and measured after 5 mins by Y-maze test; format: functional, organism-based
Mus musculus [20] = assay: Reversal of scopolamine-induced anxiety in Swiss albino mouse assessed as increase in number of novel arm entries at 5 to 10 mg/kg, ip administered once daily for 7 days prior to 4 hrs of training followed by scopolamine challenge and measured after 5 mins by Y-maze test; format: functional, organism-based
Mus musculus [21] = assay: Antialzheimer activity in Swiss albino mouse assessed as reversal of scopolamine-induced AChE level in brain at 10 mg/kg, ip administered once daily for 7 days followed by scopalamine challenge using acetylthiocholine iodide as substrate by Ellman's method; format: functional, organism-based
Mus musculus [22] = assay: Restoration of brain catalase level in scopolamine-induced Swiss albino mouse amnesia model at 10 mg/kg, ip administered once daily for 7 days followed by scopolamine challenge by spectrophotometric analysis; format: functional, organism-based
Mus musculus [23] = assay: Reversal of scopolamine-induced memory deficit in Swiss albino mouse assessed as increase in transfer latency time of retention trial at 10 mg/kg, ip administered once daily for 7 days followed by scopolamine challenge and subsequent training session for 5 mins by passive avoidance test; format: functional, organism-based

Sequence of Acetylcholinesterase (Electrophorus electricus) (O42275 24-633 limits assumed): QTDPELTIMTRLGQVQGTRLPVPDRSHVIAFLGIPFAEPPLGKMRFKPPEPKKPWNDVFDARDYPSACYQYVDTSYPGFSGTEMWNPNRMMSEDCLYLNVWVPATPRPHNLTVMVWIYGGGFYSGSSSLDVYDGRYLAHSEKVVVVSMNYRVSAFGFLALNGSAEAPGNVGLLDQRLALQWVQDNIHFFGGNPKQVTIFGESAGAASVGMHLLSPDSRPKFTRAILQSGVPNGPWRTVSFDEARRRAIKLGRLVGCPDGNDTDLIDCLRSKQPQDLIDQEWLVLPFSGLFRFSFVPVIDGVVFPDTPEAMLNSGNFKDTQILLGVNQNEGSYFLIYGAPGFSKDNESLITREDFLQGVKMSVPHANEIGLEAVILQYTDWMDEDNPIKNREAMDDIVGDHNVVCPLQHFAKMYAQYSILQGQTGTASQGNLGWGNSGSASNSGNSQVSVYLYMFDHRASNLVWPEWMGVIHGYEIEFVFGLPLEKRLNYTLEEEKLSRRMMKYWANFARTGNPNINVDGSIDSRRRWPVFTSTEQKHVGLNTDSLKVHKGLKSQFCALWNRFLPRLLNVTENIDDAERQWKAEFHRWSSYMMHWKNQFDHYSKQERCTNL

Row | Compound | Ratio IC50 [1] | Activity [2] | Activity [3] | further results
1 | Cc1cccc(S(=O)(=O)N2C(=O)C(c3ccccc3)N(S(=O)(=O)c3cccc(C)c3)C(=O)C2c2ccccc2)c1 (stereo unspecified) | < 0.4 | 38.6% | 55.2% | 
2 | O=C1C(c2ccccc2)N(S(=O)(=O)c2ccc(Cl)cc2)C(=O)C(c2ccccc2)N1S(=O)(=O)c1ccc(Cl)cc1 (stereo unspecified) | 0.2 | 52.9% | 60.3% | Vmax/Km [4]: 0.104 U/min/nM; Vmax/Km [5]: 0.0696 U/min/nM; Vmax/Km [6]: 0.00052 U/min/nM; Activity [7]: Active; Activity (Mus musculus [8]): Active; Activity (Mus musculus [9]): Active; Activity (Mus musculus [10]): Active; Activity (Mus musculus [11]): Active; Activity (Mus musculus [12]): inactive; Activity (Mus musculus [13]): inactive; Activity (Mus musculus [14]): Dose-dependent effect; Activity (Mus musculus [15]): Active; Activity (Mus musculus [16]): Active; Activity (Mus musculus [17]): Active
3 | O=C1C(c2ccccc2)N(S(=O)(=O)c2ccc(Br)cc2)C(=O)C(c2ccccc2)N1S(=O)(=O)c1ccc(Br)cc1 (stereo unspecified) | 0.2 | 45.7% | 63.8% | 
4 | O=C1O[C@H]([C@@H](O)CO)C(O)=C1O |  | 37.1% | 48.8% | 
5 | O=C1C(c2ccccc2)N(S(=O)(=O)c2cccc(Br)c2)C(=O)C(c2ccccc2)N1S(=O)(=O)c1cccc(Br)c1 (stereo unspecified) | 0.4 | 46.2% | 63.3% | 
6 | O=C1C(Cc2ccccc2)N(S(=O)(=O)c2ccc(O)cc2)C(=O)C(Cc2ccccc2)N1S(=O)(=O)c1ccc(O)cc1 (stereo unspecified) | 0.3 | 58.1% | 68.6% | 
7 | Nc1ccc(S(=O)(=O)N2CC(=O)N(S(=O)(=O)c3ccc(N)cc3)CC2=O)cc1 | < 0.4 | 55.7% | 62.9% | 
8 | O=C1C(Cc2ccccc2)N(S(=O)(=O)c2ccc(Br)cc2)C(=O)C(Cc2ccccc2)N1S(=O)(=O)c1ccc(Br)cc1 (stereo unspecified) | 0.3 | 47.6% | 64.8% | 
9 | CCCCS(=O)(=O)N1CC(=O)N(S(=O)(=O)CCCC)CC1=O |  | 65.7% | 56.7% | 
10 | O=C1C(Cc2ccccc2)N(S(=O)(=O)c2ccc(Cl)cc2)C(=O)C(Cc2ccccc2)N1S(=O)(=O)c1ccc(Cl)cc1 (stereo unspecified) | 0.2 | 48.1% | 60% | Activity (Mus musculus [18]): Active; Activity (Mus musculus [19]): Active; Activity (Mus musculus [9]): Active; Activity (Mus musculus [20]): Active; Activity (Mus musculus [15]): Active; Activity (Mus musculus [21]): Active; Activity (Mus musculus [22]): Active; Activity (Mus musculus [17]): Active
11 | CCCS(=O)(=O)N1CC(=O)N(S(=O)(=O)CCC)CC1=O |  | 31.4% | 59.2% | 
12 | O=C1C(Cc2ccccc2)N(S(=O)(=O)c2ccc([N+](=O)[O-])cc2)C(=O)C(Cc2ccccc2)N1S(=O)(=O)c1ccc([N+](=O)[O-])cc1 (stereo unspecified) | 0.4 | 42.9% | 54.8% | 
13 | Nc1ccc(S(=O)(=O)N2C(=O)C(c3ccccc3)N(S(=O)(=O)c3ccc(N)cc3)C(=O)C2c2ccccc2)cc1 (stereo unspecified) | < 0.5 | 56.2% | 66.7% | 
14 | O=C1CN(S(=O)(=O)c2ccc(Cl)cc2)C(=O)CN1S(=O)(=O)c1ccc(Cl)cc1 | 0.3 | 36.2% | 55.2% | 
15 | O=C1CN(S(=O)(=O)c2cccc(Cl)c2)C(=O)CN1S(=O)(=O)c1cccc(Cl)c1 | 0.3 | 35.7% | 55.2% | 
16 | O=C1CN(S(=O)(=O)c2ccccc2)C(=O)CN1S(=O)(=O)c1ccccc1 |  | 39.5% | 52.4% | 
17 | Cc1ccc(S(=O)(=O)N2C(=O)C(c3ccccc3)N(S(=O)(=O)c3ccc(C)cc3)C(=O)C2c2ccccc2)cc1 (stereo unspecified) | < 0.4 | 38.1% | 56.2% | 
18 | O=C1CN(S(=O)(=O)c2ccc(F)cc2)C(=O)CN1S(=O)(=O)c1ccc(F)cc1 | 0.4 | 37.1% | 50.5% | 
19 | O=C1C(Cc2ccccc2)N(S(=O)(=O)c2cccc(O)c2)C(=O)C(Cc2ccccc2)N1S(=O)(=O)c1cccc(O)c1 (stereo unspecified) | 0.3 | 57.1% | 66.2% | 
20 | O=C1C(c2ccccc2)N(S(=O)(=O)c2ccc([N+](=O)[O-])cc2)C(=O)C(c2ccccc2)N1S(=O)(=O)c1ccc([N+](=O)[O-])cc1 (stereo unspecified) | 0.3 | 42.4% | 54.3% | 
21 | COc1cc2c(cc1OC)C(=O)C(CC1CCN(Cc3ccccc3)CC1)C2 (stereo unspecified) |  | 60.1% | 74.6% | Activity (Mus musculus [23]): Active
22 | O=C1C(c2ccccc2)N(S(=O)(=O)c2ccc(O)cc2)C(=O)C(c2ccccc2)N1S(=O)(=O)c1ccc(O)cc1 (stereo unspecified) | < 0.4 | 52.9% | 65.2% | 
23 | O=C1CN(S(=O)(=O)c2ccc(Br)cc2)C(=O)CN1S(=O)(=O)c1ccc(Br)cc1 | 0.4 | 47.1% | 60.4% | 
24 | O=C1C(Cc2ccccc2)N(S(=O)(=O)c2cccc(Br)c2)C(=O)C(Cc2ccccc2)N1S(=O)(=O)c1cccc(Br)c1 (stereo unspecified) | 0.4 | 46.7% | 64.3% | 
25 | Cc1ccc(S(=O)(=O)N2CC(=O)N(S(=O)(=O)c3ccc(C)cc3)CC2=O)cc1 | < 0.6 | 34.8% | 46.7% | 
26 | COc1ccc(S(=O)(=O)N2CC(=O)N(S(=O)(=O)c3ccc(OC)cc3)CC2=O)cc1 | < 0.5 | 48.6% | 57.6% | 
